{
  "source": "patent US20170173060A1",
  "about": "“ACTIVATION OF THE ENDOGENOUS ILEAL BRAKE HORMONE PATHWAY FOR ORGAN REGENERATION AND RELATED COMPOSITIONS, METHODS OF TREATMENT, DIAGNOSTICS, AND REGULATORY SYSTEMS” (VOLANT HOLDINGS GMBH, priority 2014, published 2017)",
  "key": {"MIN-6 cells": {"system": "MIN-6 cells", "settings": "cited from earlier work"}, "[1]": {"settings": "1500 mg taken in three doses of 500 mg; cited from earlier work"}, "[2]": {"system": "hypercholesterolemic New Zealand White rabbits", "settings": "cited from earlier work"}, "C57BL/6J mice": {"system": "C57BL/6J mice", "settings": "1 mg/kg body weight, cited from earlier work"}, "patients with RA": {"system": "patients with RA", "settings": "human, in vivo; cited from earlier work"}, "[3]": {"system": "high-risk cardiovascular disease (CVD) patients", "settings": "cited from earlier work"}, "people with stable COPD": {"system": "people with stable COPD", "settings": "in vivo; cited from earlier work"}, "[4]": {"system": "patients with initial abnormal values", "experiment": "Rate of change of weight, HBA1c, HDL, TG and AST in RYGB, Brake, combination and control patients (FIGS. 18-22)", "assay_type": "in vivo, human"}, "[5]": {"system": "patients with metabolic syndrome", "experiment": "FS index of metabolic syndrome tracked over time in patient groups (neural net model)", "assay_type": "in vivo, human", "text": "The FS index (Fayad/Schentag) of MS (the relevant equation for which appears in attached FIG. 15) considers the following: Fasting Blood Glucose, Fasting Insulin, HBA1c, BMI, AST, Triglycerides, Glucose Supply-Demand (SD) index, and Proinsulin. Each parameter is mathematically arranged to increase as MS worsens, and weighted approximately equally in the prediction of MS progression and risk for organ damage.\nThe FS index was then applied to well-studied patient populations already in databases, using a neural net model and the equation set forth in FIG. 15 (and as above). The database included previously published 50 patients with T2D having CV events principally myocardial infarctions, and controls of a precisely matched group of T2D patients without these events (2, 3). […] For each study patient, we had complete access to all raw data, measured vital signs, culture results, and clinician assessments. […]\nFS index values were calculated from serial laboratory and clinical data over timeframes ranging between 2 and 10 years. […]\nThe FS index was applied to well-studied patient populations already in our databases, using a neural net model. […] FS index values were calculated from serial laboratory and clinical data over timeframes ranging 2-10 years. […]"}, "[6]": {"experiment": "Case of patient (T2D, chronic hepatitis B, steatosis) on Januvia and Brake", "assay_type": "in vivo, human", "settings": "6 months after stopping Brake, sitagliptin continued", "method": "Both their Triglycerides and hepatic enzymes were 2-3× elevated. […] Their diabetic control deteriorated on this regimen, to the point where they were considered a candidate for insulin. As an alternative, patient was started on Januvia (sitagliptin) 100 mg per day and 7 pills of Brake™. After 6 months treatment, their HBA1c became normal at 6.0, indicating pancreatic regeneration from the combination product. […] They lost 35 lbs. After 6 months, they stopped the Brake™ therapy but continued sitagliptin. By 6 months later they began to gain weight and their HBA1c rose above 6.0, whereupon they resumed taking Brake™ tablets with return of their HBA1c to normal once again. This case taught the inventors that Brake™ associated organ regeneration is a long lived effect of the combination but not a permanent effect. In fact it is often notable that RYGB patients lose the effects of the surgical procedure after two or more years, and it appears that resumption of dietary indiscretion leads to recrudescence of the metabolic syndrome. Patients are thus advised to be vigilant, particularly if weight gain resumes."}, "[7]": {"system": "human abdominal subcutaneous (AbdSc) adipocytes", "settings": "cited from earlier work"}},
  "note": "Entries after “also recorded” stand apart in the source; their conditions may differ.",
  "data": [
    {"compound": "COc1cc(/C=C(\\C#N)C(N)=O)cc(CSc2nc3ccccc3s2)c1O", "note": "[AG825]", "values": [
      {"measurement": "effect on BTC proliferative effect", "setting": "MIN-6 cells", "result": "blocked"}
    ]},
    {"compound": "COc1cc2ncnc(Nc3cccc(Cl)c3)c2cc1OC", "note": "[AG1478]", "values": [
      {"measurement": "effect on BTC proliferative effect", "setting": "MIN-6 cells", "result": "blocked"}
    ]},
    {"compound": "COc1ccc2cc3[n+](cc2c1OC)CCc1cc2c(cc1-3)OCO2", "note": "[Berberine]", "values": [
      {"measurement": "anti-diabetic effects (biomarkers of type 2 diabetes)", "setting": "[1]", "result": "appear to be equal to those of 1500 mg Metformin or 4 mg Glibenclamide"}
    ]},
    {"compound": "CCCCCCCCCCC(C)(C)C(=O)Nc1c(OC)cc(OC)cc1OC", "note": "[CI-976, 2,2-dimethyl-N-(2,4,6-trimethoxyphenyl) dodecanamide]", "values": [
      {"measurement": "decrease of cholesteryl ester enrichment in thoracic aorta", "setting": "[2]; rabbit, in vivo", "result": 46, "unit": "%"},
      {"measurement": "effect on plasma triglycerides", "setting": "[2]; rabbit, in vivo", "result": "no effect"},
      {"measurement": "reduction of foam cell area in iliac-femoral lesion", "setting": "[2]; relative to the initiation of intervention, dose that did not lower plasma cholesterol", "result": "27-29%"}
    ]},
    {"compound": "CC(C)=CCC[C@](C)(O)[C@H]1CC[C@]2(C)[C@@H]1[C@H](O)C[C@@H]1[C@@]3(C)CC[C@H](O[C@@H]4O[C@H](CO)[C@@H](O)[C@H](O)[C@H]4O)C(C)(C)[C@@H]3CC[C@]12C", "note": "[GS-Rh2, ginsenoside Rh2]", "values": [
      {"measurement": "glycemia and glucose tolerance", "setting": "C57BL/6J mice; within 14 days post-PPx", "result": "improved glycemia and glucose tolerance"},
      {"measurement": "beta-cell proliferation", "setting": "C57BL/6J mice", "result": "increased beta-cell proliferation percentages"}
    ]},
    {"compound": "CN(Cc1cnc2nc(N)nc(N)c2n1)c1ccc(C(=O)N[C@@H](CCC(=O)O)C(=O)O)cc1", "note": "[MTX, Methotrexate]", "values": [
      {"measurement": "risk of CVD events", "setting": "patients with RA", "result": "associated with a reduced risk of CVD events"}
    ]},
    {"compound": "COc1cc(OC)c2c(=O)[nH]c(-c3cc(C)c(OCCO)c(C)c3)nc2c1", "note": "[RVX-208]", "values": [
      {"measurement": "change of ratio of necrotic core to dense calcium (NC/DC)", "setting": "[3]; VH-IVUS, treated patients n=61", "result": "−7.5", "unit": "%"},
      {"measurement": "incidence of MACE lower vs. placebo", "setting": "[3]; patients with hsCRP >2.0 mg/dL", "result": 63, "unit": "%"}
    ]},
    {"compound": "O=C(Nc1c(Cl)cncc1Cl)c1ccc(OC(F)F)c(OCC2CC2)c1", "note": "[Roflumilast]", "values": [
      {"measurement": "body weight during the trial period", "setting": "people with stable COPD", "result": "weight loss"}
    ]},
    {"compound": "CC(C)c1c(C(=O)Nc2ccccc2)c(-c2ccccc2)c(-c2ccc(F)cc2)n1CC[C@@H](O)C[C@@H](O)CC(=O)O", "note": "[atorvastatin]", "values": [
      {"measurement": "HDL change", "setting": "[4]; FIG. 20, control patients mostly atorvastatin 10 mg", "result": "essentially no change in HDL"},
      {"measurement": "triglyceride (TG) changes", "setting": "[4]; FIG. 21", "result": "either stayed the same or had a minor drop in TG"},
      {"measurement": "AST concentrations and rate of change", "setting": "[4]; FIG. 22", "result": "little effect on hepatic inflammation"}
    ]},
    {"compound": "CN(C)C(=N)N=C(N)N", "note": "[metformin]", "values": [
      {"measurement": "parameters that would indicate regeneration", "setting": "[5]; control patients, even at dosages of 2.0 grams daily", "result": "no significant change"},
      {"measurement": "pattern of FS index over time", "setting": "[5]; metformin alone, 61 patients (FIG. 5)", "result": "rises; also recorded: flat or slowly rising"},
      {"measurement": "weight change", "setting": "[4]; FIG. 18", "result": "either stayed the same or lost a few pounds"},
      {"measurement": "HBA1c change", "setting": "[4]; FIG. 19", "result": "either stayed the same or had a minor drop in HBA1c"},
      {"measurement": "effect on metabolic syndrome biomarkers when given alone", "setting": "[4]; FIGS. 18-21 control patients", "result": "little effect"}
    ]},
    {"compound": "N[C@@H](CC(=O)N1CCn2c(nnc2C(F)(F)F)C1)Cc1cc(F)c(F)cc1F", "note": "[sitagliptin]", "values": [
      {"measurement": "HBA1c", "setting": "[6]", "result": "above 6.0"}
    ]},
    {"compound": "lipopolysaccharide [LPS]", "values": [
      {"measurement": "TLR-2 protein expression increase", "setting": "[7]", "result": "twofold"},
      {"measurement": "TNF-alpha secretion", "setting": "[7]; control 1.0+/-0.83", "result": "32.8 ± 6.23", "unit": "pg/mL"},
      {"measurement": "IL-6 secretion", "setting": "[7]; control 2.7+/-0.5", "result": "4.8 ± 0.3", "unit": "ng/mL"}
    ]}
  ]
}
